Data from US7371766B2, “Curcumin analogs with anti-tumor and anti-angiogenic properties” (Emory University, priority 1999, dated 2008).

Columns and labels:
[1] = test system: LOX IMVI; assay: cells; details: Homo sapiens, 48 h
[2] = test system: T-47D; assay: cells; details: Homo sapiens, T47D, 48 h
[3] = test system: K-562; assay: cells; details: Homo sapiens, K562, 48 h
[4] = test system: SW-620; assay: cells; details: Homo sapiens, SW-620, 48 h
[5] = test system: Vascular Endothelial Growth Factor (VEGF) production by human melanoma cell line RPMI-7951; assay: VEGF ELISA, RPMI-7951; details: for VEGF ELISA / VEGF: RPMI-7951; for VEGF ELISA: DMSO control 3713
[6] = test system: HL-60 (TB); assay: cells; details: Homo sapiens, HL-60, 48 h
[7] = test system: RXF 393; assay: cells; details: Homo sapiens, RXF 393, 48 h
[8] = test system: A498; assay: cells; details: Homo sapiens, A498, 48 h
[9] = test system: SN12C; assay: cells; details: Homo sapiens, 48 h
[10] = test system: UACC-62; assay: cells; details: Homo sapiens, UACC-62, 48 h
[11] = test system: 786-0; assay: cells; details: Homo sapiens, 786-0, 48 h
[12] = test system: SF-539; assay: cells; details: Homo sapiens, SF-539, 48 h
[13] = test system: NCI-H460; assay: cells; details: Homo sapiens, NCI-H460, 48 h
[14] = test system: ACHN; assay: cells; details: Homo sapiens, 48 h
[15] = test system: UO-31; assay: cells; details: Homo sapiens, UO-31, 48 h
[16] = test system: OVCAR-4; assay: cells; details: Homo sapiens, OVCAR-4, 48 h
[17] = test system: MCF-7; assay: cells; details: Homo sapiens, MCF7, 48 h
[18] = test system: RPMI-8226; assay: cells; details: Homo sapiens, RPMI-8226, 48 h
[19] = test system: Sixty human tumor cell lines; assay: cells; details: 48 h
[20] = test system: KM12; assay: cells; details: Homo sapiens, KM12, 48 h
[21] = test system: SF-268; assay: cells; details: Homo sapiens, SF-268, 48 h
[22] = test system: SK-MEL-28; assay: cells; details: Homo sapiens, SK-MEL-28, 48 h
[23] = test system: CAKI-1; assay: cells; details: Homo sapiens, CAKI-1, 48 h
[24] = test system: HS 578T; assay: cells; details: Homo sapiens, 48 h
[25] = test system: NCI-H226; assay: cells; details: Homo sapiens, NCI-H226, 48 h
[26] = test system: SK-MEL-5; assay: cells; details: Homo sapiens, SK-MEL-5, 48 h
[27] = test system: EKVX; assay: cells; details: Homo sapiens, 48 h
[28] = test system: COLO 205; assay: cells; details: Homo sapiens, COLO 205, 48 h
[29] = test system: MDA-MB-231; assay: cells; details: Homo sapiens, MDA-MB-231, 48 h
[30] = read-out: Median Growth Inhibitory Concentration (GI50)
[31] = read-out: Median Lethal Concentration (LC50)
[32] = Homo sapiens, RPMI-7951, 72 h, read-out: VEGF

Compound `O=C(C=Cc1ccc(F)cc1F)C=Cc1ccc(F)cc1F` [EF9, 1,5-Bis(2,4-difluorophenyl)penta-1,4-dien-3-one] has a GI50 [1, 30] of 3.4 µM, a CC50 [1, 31] of 67.6 µM and a GI50 [2, 30] of 4.4 µM. The CC50 [2, 31] was 56.1 µM, the GI50 [3, 30] was 3.5 µM and the CC50 [3, 31] was greater than 100 µM. It also gave a GI50 [4, 30] of 3.2 µM, a CC50 [4, 31] of 62.6 µM and an activity at 5 µM [5, 32] of 46%. For the same compound, the activity at 20 µM [5, 32] was 14%, the “VEGF ELISA” value ([5]; 5 μM) was 1868 pg/ml/well and the VEGF ([5]; 5 μM, DMSO control 4197 (EF-25: 1045)) was 1925 pg/mL. For the same compound, the “VEGF ELISA” value ([5]; 20 μM) was 705 pg/ml/well, the VEGF ([5]; 20 μM, DMSO control 4197) was 595 pg/mL and the GI50 [6, 30] was 4.2 µM. It also gave a CC50 [6, 31] greater than 100 µM, a GI50 [7, 30] of 2.3 µM and a CC50 [7, 31] of 17.9 µM. It also gave a GI50 [8, 30] of 2.4 µM, a CC50 [8, 31] of 23 µM and a GI50 [9, 30] of 17.1 µM. The CC50 [9, 31] was 62.3 µM, the GI50 [10, 30] was 13.9 µM and the CC50 [10, 31] was 52.8 µM. It also gave a GI50 [11, 30] of 3.5 µM, a CC50 [11, 31] of 49.6 µM and a GI50 [12, 30] of 2.6 µM. The CC50 [12, 31] was 23.1 µM, the GI50 [13, 30] was 12.7 µM and the CC50 [13, 31] was 60.9 µM. The GI50 [14, 30] was 16.5 µM, the CC50 [14, 31] was 54.8 µM and the GI50 [15, 30] was 9.6 µM. The CC50 [15, 31] was 49.5 µM, the GI50 [16, 30] was 15.2 µM and the CC50 [16, 31] was 61.6 µM. For the same compound, the GI50 [17, 30] was 3 µM, the CC50 [17, 31] was 42.2 µM and the GI50 [18, 30] was 2.4 µM. The CC50 [18, 31] was 95.6 µM, the GI50 ([19]; read-out: Median Growth Inhibitory Concentration (GI50), Mean) was 7.2 µM and the CC50 ([19]; read-out: Median Lethal Concentration (LC50), Mean) was 52.5 µM. The GI50 [20, 30] was 2.3 µM, the CC50 [20, 31] was 14.6 µM and the GI50 [21, 30] was 13.7 µM. The CC50 [21, 31] was greater than 100 µM, the GI50 [22, 30] was 18.6 µM and the CC50 [22, 31] was 61.1 µM. It also gave a GI50 [23, 30] of 15 µM, a CC50 [23, 31] of 93.4 µM and a GI50 [24, 30] of 9.9 µM. The CC50 [24, 31] was greater than 100 µM, the GI50 [25, 30] was 24.3 µM and the CC50 [25, 31] was greater than 100 µM. It also gave a GI50 [26, 30] of 12.1 µM, a CC50 [26, 31] of 53.1 µM and a GI50 [27, 30] of 11.8 µM. It also gave a CC50 [27, 31] of 49.1 µM, a GI50 [28, 30] of 7.6 µM and a CC50 [28, 31] of 52.8 µM. It also gave a GI50 [29, 30] of 14.1 µM and a CC50 [29, 31] of 57.7 µM.
